# Measured values: patent US5089623A, “Certain imidate insecticides” (Imperial Chemical Industries Plc, priority 1990, dated 1992)
# Legend:
# Format in all cases: in vivo
# [1] = tested on: Tobacco Budworm [Heliothis virescens (Fabricius)] eggs; experiment: Tobacco budworm egg test (TBW-E); conditions: percent in solution
# Description: Eggs: Paper towel patches of 2-day old eggs of the tobacco budworm were dipped in acetone solutions of the test compound and placed in petri dishes containing a portion of larval rearing medium. […] Test concentrations ranged from 0.1% downward.
# [2] = tested on: Housefly [Musca domestica]; experiment: Housefly insecticidal test (HF); conditions: per 25 female houseflies, 48 hours
# [3] = tested on: Cabbage Looper [Trichoplusia ni (Hubner)]; experiment: Cabbage looper test (CL); conditions: second-instar larvae, 3-5 days, percent in solution
Structure (SMILES),LC50 TBW E [1] [%],LC50 HF [2] [µg],LC50 CL [3] [%]
CC(C)(C)C(=Nc1cccc(Br)c1)OCc1cccc(Oc2ccccc2)c1 [Compound 134],> 0.1,> 100,0.015
CC(C)C(=Nc1cccc(I)c1)OCc1cccc(Oc2ccccc2)c1 [Compound 136],0.08,9,0.004
CSc1ccc(N=C(OCc2cccc(Oc3ccccc3)c2)C(Cl)Cl)cc1 [Compound 141],> 0.1,35,< 0.1
Cc1cccc(N=C(OCc2cccc(Oc3ccccc3)c2)C(C)C)c1C [Compound 148],0.025,18,0.0025
COc1ccc(N=C(OCc2cccc(Oc3ccccc3)c2)C(C)C)c(C)c1 [Compound 149],0.05,17,0.007
COc1ccc(C)cc1N=C(OCc1cccc(Oc2ccccc2)c1)C(C)C [Compound 150],> 0.1,89,0.01
CCCCc1ccc(N=C(OCc2cccc(Oc3ccccc3)c2)C(C)C)cc1 [Compound 152],> 0.1,> 100,0.009
CCC(=Nc1ccc(CC)cc1)OCc1cccc(Oc2ccccc2)c1 [Compound 157],> 0.1,25,0.009
Cc1ccc(N=C(OCc2cccc(Oc3ccccc3)c2)C(C)C)cc1C [Compound 158],0.1,9,0.003
CCOc1ccc(N=C(OCc2cccc(Oc3ccccc3)c2)C(C)(C)C)cc1 [Compound 164],> 0.1,> 100,0.005
CC(C)c1ccc(N=C(OCc2cccc(Oc3ccccc3)c2)C(C)(C)C)cc1 [Compound 165],> 0.1,> 100,0.007
CSc1cccc(N=C(OCc2cccc(Oc3ccccc3)c2)C(C)C)c1 [Compound 166],> 0.1,22,0.009
Cc1ccc(N=C(OCc2cccc(Oc3ccccc3)c2)C(C)(C)C)cc1C [Compound 167],> 0.1,> 100,0.02
CCOC(=O)c1cccc(N=C(OCc2cccc(Oc3ccccc3)c2)C(C)(C)C)c1 [Compound 168],> 0.1,> 100,0.1
COc1ccc(N=C(OCc2cccc(Oc3ccccc3)c2)C(C)C)cc1OC [Compound 169],> 0.1,10,0.009
CC(=O)c1cccc(N=C(OCc2cccc(Oc3ccccc3)c2)C(C)C)c1 [Compound 170],> 0.1,37,0.1
CCOc1cccc(N=C(OCc2cccc(Oc3ccccc3)c2)C(C)C)c1 [Compound 171],> 0.1,80,0.01
CC(C)(C)C(=Nc1cccc([N+](=O)[O-])c1)OCc1cccc(Oc2ccccc2)c1 [Compound 175],> 0.1,> 100,0.018
CC(C)C(=Nc1ccc2c(c1)OC(C)(C)O2)OCc1cccc(Oc2ccccc2)c1 [Compound 182],0.04,28,0.0006
CC(C)C(=Nc1ccc2c(c1)OCO2)OCc1cccc(Oc2ccccc2F)c1 [Compound 183],0.075,10,0.00075
CCCC(=Nc1ccc(OC)cc1)OCc1cccc(Oc2ccccc2)c1 [Compound 184],> 0.1,61,0.024
CCC(C)C(=Nc1ccc2c(c1)OCO2)OCc1cccc(Oc2ccccc2)c1 (stereo not drawn) [Compound 185],0.075,13,0.0006

Structure (SMILES),LC50 TBW E [1] [%],LC50 HF [2] [µg],LC50 CL [3] [%]
CC(C)C(=Nc1ccc2c(c1)OCO2)OCc1cccc(Oc2ccccc2F)c1 [Compound 190],0.023,7.5,0.0004
CC(C)C(=Nc1cccc(C(F)(F)F)c1)OCc1cccc(Oc2cccc(F)c2)c1 [Compound 192],0.07,25,0.0012
CC(C)C(=Nc1ccc(Cl)c(C(F)(F)F)c1)OCc1cccc(Oc2cccc(F)c2)c1 [Compound 195],> 0.1,> 100,0.002
CC(C)C(=Nc1ccc(F)cc1)OCc1cccc(Oc2ccc(F)cc2)c1 [Compound 197],0.05,> 100,0.0004
CC(C)C(=Nc1cccc(F)c1)OCc1cccc(Oc2ccc(F)cc2)c1 [Compound 200],0.1,7.5,0.00075
COc1cccc(N=C(OCc2cccc(Oc3ccc(F)cc3)c2)C(C)C)c1 [Compound 201],> 0.1,15,0.004
CC(C)C(=Nc1ccc(F)cc1)OCc1cccc(Oc2cccc(Cl)c2)c1 [Compound 205],> 0.1,50,0.004
CC(C)C(=Nc1ccc(F)cc1)OCc1cccc(Oc2ccc(F)cc2F)c1 [Compound 206],> 0.1,50,0.0017
CC(C)C(=Nc1ccc(Cl)c(Cl)c1)OCc1cccc(Oc2cccc(Cl)c2)c1 [Compound 207],> 0.1,> 100,0.008
CC(C)C(=Nc1ccc(C#N)cc1)OCc1cccc(Oc2cccc(Cl)c2)c1 [Compound 208],> 0.1,27,0.0035
CCC(C)C(=Nc1ccc(Cl)c(Cl)c1)OCc1cccc(Oc2ccc(F)cc2)c1 (stereo not drawn) [Compound 211],> 0.1,61,0.0017
CC(C)C(=Nc1ccc(F)c(F)c1)OCc1cccc(Oc2ccc(C#N)cc2)c1 [Compound 212],0.045,20,0.0005
CC(C)C(=Nc1ccc(Cl)c(Cl)c1)OCc1cccc(Oc2ccc(F)cc2F)c1 [Compound 213],> 0.1,> 100,0.00075
CC(C)C(=Nc1ccc(F)c(F)c1)OCc1cccc(Oc2ccc(F)cc2F)c1 [Compound 214],0.04,19,0.0003
CC(C)C(=Nc1ccc(F)c(Cl)c1)OCc1cccc(Oc2cc(F)cc(F)c2)c1 [Compound 215],> 0.1,75,0.00075
CC(C)C(=Nc1ccc(Cl)c(Cl)c1)OCc1cccc(Oc2ccc(F)c(F)c2)c1 [Compound 218],0.025,25,0.0003
COc1ccc(Oc2cccc(COC(=Nc3ccc(F)cc3)C(C)C)c2)cc1 [Compound 220],> 0.1,85,0.007
COc1ccc(Oc2cccc(COC(=Nc3ccc(F)c(Cl)c3)C(C)C)c2)cc1 [Compound 221],> 0.1,62,0.0027
CC(C)C(=Nc1ccc(C#N)c(F)c1)OCc1cccc(Oc2ccc(F)cc2)c1 [Compound 222],> 0.1,32,0.0015
COc1ccc(Oc2cccc(COC(=Nc3ccc(Cl)c(Cl)c3)C(C)C)c2)cc1 [Compound 223],> 0.1,43,0.008
CC(C)(Cl)C(=Nc1ccc(F)c(Cl)c1)OCc1cccc(Oc2ccc(F)cc2)c1 [Compound 224],> 0.1,> 100,0.001
CC(C)C(=Nc1ccc(C#N)cc1)OCc1cccc(Oc2ccc(F)cc2)c1 [Compound 227],0.1,10,0.0015
